{"source": "patent US20120329721A1", "about": "“MEANS FOR PREVENTING AND TREATING CELLULAR DEATH AND THEIR BIOLOGICAL APPLICATIONS” (CHIESI FARMACEUTICI S.P.A., priority 2003, published 2012)", "key": {"caspase-8": {"test_system": "caspase-8", "experiment": "In cellula caspase-8 like activity (FAM-LETD-FMK FLICA) in SD-neurons", "format": "cell-based, mouse", "conditions": "24 hr-SD; inhibitors 100 μM"}, "primary cortical neurons [1]": {"test_system": "primary cortical neurons", "format": "cell-based", "conditions": "for survival / protection of SD-neurons against cell death (apoptosis hallmarks overall): 24 hr-SD, inhibitors 100 μM (BA 25 μM, furosemide 2 mM, siRNA 3.8 μg)"}, "Jurkat cells [2]": {"test_system": "Jurkat cells", "experiment": "VP16-induced cell death of Jurkat cells, cytoprotection assay", "format": "cell-based, human", "conditions": "for terminal nuclear alterations and PMP in VP16-treated Jurkat cells / ΔΨm loss in VP16-treated Jurkat cells: VP16 10 μM, 7-8 hrs, inhibitors 50 μM"}, "caspase-3 [3]": {"test_system": "caspase-3", "experiment": "Caspase-3 activation (FLICA) in VP16-treated Jurkat cells", "format": "cell-based, human", "conditions": "VP16 10 μM, 7 hrs; inhibitors 50 μM"}, "[4]": {"biological_target": "T1, human recombinant caspase-2 (Homo sapiens, UniProt P42575)", "T1 construct": "purchased BIOMOL", "T1 sequence (P42575 170-325 limits assumed)": "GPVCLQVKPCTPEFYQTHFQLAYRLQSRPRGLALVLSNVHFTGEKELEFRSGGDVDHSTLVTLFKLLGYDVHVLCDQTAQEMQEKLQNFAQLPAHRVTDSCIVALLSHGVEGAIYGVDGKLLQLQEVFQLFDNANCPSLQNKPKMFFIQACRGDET", "T1 sequence (P42575 348-452 limits assumed)": "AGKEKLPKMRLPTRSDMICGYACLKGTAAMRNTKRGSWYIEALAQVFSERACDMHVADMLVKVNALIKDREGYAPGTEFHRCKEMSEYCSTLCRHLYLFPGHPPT", "experiment": "In vitro VDVAD-AMC cleavage by recombinant caspase-2", "format": "biochemical", "conditions": "inhibitor 2 μM, 50 μM VDVAD-AMC, caspase-2 125 U, 30 min at 37° C.", "method": "Activity of human recombinant caspase-2 (BIOMOL QuantiZyme™ Assay System) was assessed in 100 μl assay buffer (50 mM HEPES, pH 7.4, 100 mM NaCl, 0.1% CHAPS, 10 mM DTT, 1 mM EDTA, 10% glycerol)."}, "caspase-9": {"test_system": "caspase-9", "experiment": "In cellula caspase-9 like activity (FAM-LEHD-FMK FLICA) in SD-neurons", "format": "cell-based, mouse", "conditions": "24 hr-SD; inhibitors 100 μM (BA 25 μM)", "experimental": "Neurons were incubated with 1/150 of the DMSO stock solution of the FLICA for 1 hr at 37° C. 7-AAD and Hoechst were added during the last 15 min. Then neurons were washed three times in washing buffer (CaspaTag™ Kit). […] Cleaved caspase-3 was evidenced in cellula by immunodetection using Phycoerythrin (PE)-conjugated polyclonal antibodies (Beckton Dickinson). Neurons were stained by 7-AAD, trypsinized and fixed in PBS containing 1% PFA and 20 μg/ml Actinomycin D (AD) for 20 min. […] After washings in PBS, PE-related fluorescence was analysed on the cytometer (Fl-2 channel). Z-val-Ala-Asp(OMe)-FMK (Z-VAD-FMK), Quinoline-Val-Asp (OMe)-CH2-O-Ph (Q-VD-OPH), Z-DEVD-FMK ([…], ICN) and Z-LEHD-FMK ([…], all purchased from ICN (Orsay, France), and 4-(2-Aminoethyl)benzenesulfonyl fluoride (AEBSF, Pefabloc SC, Roche, Meylan, France) were added at 100 μM at the initiation of serum deprivation. Sulforhodamine-DEVD-FMK, (CaspaTag™ Red Activity Kit) permitted to detect activated caspase-3 and FITC-Annexin V. Neurons were incubated with 1/900 of the DMSO stock solution of the FLICA, and 1× FITC-annexin V in 200 μl of annexin-buffer for 30 min at 37° C. Then neurons were washed three times in a buffer composed of 50% washing buffer and 50% annexin-buffer. […] For FM, FLICA was excited through the BP515-560 filter and its fluorescence was collected through the LP590 long pass emission filter.\nNeurons were loaded with 1 μM JC-1 for 30 min at 37° C. […] JC-1 monomers were detected in the Fl-1 channel by FC. […] Activated caspase-2, -3, -8 and -9 were detected using specific FAM-conjugated peptides (called Fluorochrome Labeled Inhibitor of Caspase, FLICA: CaspaTag™ fluorescein Caspase Activity Kits, Q-Biogen, Illkirch, France; ApoFluor™ Caspase Detection Kits, ICN, Orsay, France): FAM-VDVAD-FMK, FAM-DEVD-FMK, FAM-LETD-FMK and FAM-LEHD-FMK, respectively. Neurons were incubated with FLICAs (1:150, CaspaTag™ or 1:500, ApoFluor™) for 1 hr at 37° C., then washed three times in washing buffer. […] Phosphatidylserine (PS) exposure to the outer leaflet of the plasma membrane was detected through the fixation of FITC conjugated-annexin V (Immunotech)."}, "caspase-3 [5]": {"test_system": "caspase-3", "experiment": "In cellula caspase-3 like activity (FAM-DEVD-FMK FLICA or anti-cleaved caspase-3 antibody) in SD-neurons", "format": "cell-based, mouse", "conditions": "24 hr-SD; inhibitors 100 μM (BA 25 μM)"}, "caspase-2 [6]": {"test_system": "caspase-2", "experiment": "Caspase-2 activation (FLICA) in VP16-treated Jurkat cells", "format": "cell-based, human", "conditions": "VP16 10 μM, 7 hrs; inhibitors 50 μM"}, "Jurkat cells [7]": {"test_system": "Jurkat cells", "conditions": "model of Robertson et al., 2002; cited from earlier work"}, "primary cortical neurons [8]": {"test_system": "primary cortical neurons", "experiment": "Cortical neuron death induced by other stimuli (ionomycin, staurosporine, β-amyloid 25-35, MPTP, 3-NPA, SNP)", "format": "cell-based, mouse", "conditions": "for protection against ionomycin-induced neuronal cell death: ionomycin 6 μM, 24 hrs"}, "Bax": {"test_system": "Bax", "experiment": "Bax translocation to mitochondria in SD-neurons (Δ21 antibody immunostaining, subcellular fractionation)", "format": "cell-based, mouse", "conditions": "24 hr-SD, inhibitors 100 μM (furosemide 2 mM)"}, "caspase-2 [9]": {"test_system": "caspase-2", "experiment": "In cellula caspase-2 like activity (FAM-VDVAD-FMK FLICA; Western blotting) in SD-neurons", "format": "cell-based, mouse"}, "cytochrome c": {"test_system": "cytochrome c", "experiment": "Immunodetection of cytochrome c release in SD-neurons", "format": "cell-based, mouse", "conditions": "24 hr-SD, inhibitors 100 μM"}, "Bax α": {"test_system": "Bax α", "experiment": "Bax cleavage (p22 to p18) in SD-neurons by Western blotting", "format": "cell-based, mouse", "conditions": "24 hr-SD, Western Blotting Δ21 antibody; VDVAD/QVDOPH 100 μM, ALLN/ALLM 25 μM, E64d 25-50 μM, lactacystin 1-10 μM, epoxomycin 10 μM", "experimental": "Neurons were lysed at RT in 25 mM Tris-HCl pH 7.4, 25 mM NaCl, 5 mM EDTA, 1% Triton X-100 supplemented by complete protease inhibitors cocktail (Roche). Protein concentration was determined using the Bio-Rad protein assay kit. Proteins (30 μg for caspase-2; 10 μg for Bax) were separated on 12.5% polyacrylamide gels and transferred to PVDF membranes (Amersham). […] The monoclonal anti-mouse caspase-2antibody (11B4, Alexis Biochemicals) was used at a 1:1000 dilution; polyclonal antibody (Δ21, Santa Cruz Biotechnology) raised against mouse Bax α deleted for the carboxy terminal 21 amino acids was used at a 1:200 dilution; polyclonal antibody (N20, Santa Cruz Biotechnology) raised against the amino terminus of Bax α (recognizing residues 11 to 30) was used at a 1:1000 dilution. Actin (42 kDa; Sigma; 1:5000) is used as an equal loading control. Immunoblotting of heat-shock protein 60 (HSP60) with a mouse monoclonal anti-HSP (Sigma; 1:400) was used to check the purity of the heavy membrane fraction enriched in mitochondria."}}, "note": "“Also recorded” adds a separate entry of the source. Where two headings read alike, the source gives them in different places. Residues, ends and D or L forms follow the SMILES beside them. *: point of attachment. Cbz = O=C(OCc1ccccc1)*; CH2F = FC*"}
{"smiles": "COC(=O)CCC(NC(=O)C(CC(C)C)NC(=O)OCc1ccccc1)C(=O)NC(C(=O)NC(CC(=O)OC)C(=O)CF)C(C)O", "note": "(centres unmarked) [Z-LETD-FMK, N-benzyloxycarbonyl-Leu-Glu(Ome)-Thr-Asp(OMe)-fluoromethylketone] (Cbz-LE(OMe)TD(OMe)-CH2F; configuration not given here)", "values": [{"measurement": "caspase-8 like activity in SD-neurons", "setting": "caspase-8", "value": "abolishing"}, {"measurement": "survival / protection of SD-neurons against cell death (apoptosis hallmarks overall)", "setting": "primary cortical neurons [1]", "value": "failed to protect neurons from SD"}, {"measurement": "terminal nuclear alterations and PMP in VP16-treated Jurkat cells", "setting": "Jurkat cells [2]", "value": "unable to prevent"}, {"measurement": "ΔΨm loss in VP16-treated Jurkat cells", "setting": "Jurkat cells [2]", "value": "not abolished; also recorded: unable to prevent"}, {"measurement": "caspase-3 activation in VP16-treated Jurkat cells", "setting": "caspase-3 [3]", "value": "unable to prevent"}, {"measurement": "inhibition of VDVAD-AMC cleavage by recombinant caspase-2", "setting": "[4]", "value": "did not interfere highly; also recorded: not strongly inactivated"}, {"measurement": "caspase-9 like activity / activation in SD-neurons", "setting": "caspase-9", "value": "failed also to block"}, {"measurement": "caspase-3 like activity / activation in SD-neurons", "setting": "caspase-3 [5]", "value": "failed also to block"}, {"measurement": "caspase-2 activation in VP16-treated Jurkat cells", "setting": "caspase-2 [6]", "value": "do not impair caspase-2 activation; also recorded: unable to prevent"}]}
{"smiles": "COC(=O)CC(NC(=O)C(C)NC(=O)C(NC(=O)C(CC(=O)OC)NC(=O)C(NC(=O)OCc1ccccc1)C(C)C)C(C)C)C(=O)CF", "note": "(stereo not drawn) [Z-VDVAD-FMK, N-benzyloxy-carbonyl-Val-Asp(Ome)-Val-Ala-Asp(OMe)-fluoromethylketone] (Cbz-VD(OMe)VAD(OMe)-CH2F; configuration not given here)", "values": [{"measurement": "cytochrome c release and phosphatidylserine residues exposure in Jurkat T cells", "setting": "Jurkat cells [7]", "value": "decreased partially"}, {"measurement": "survival / protection of SD-neurons against cell death (apoptosis hallmarks overall)", "setting": "primary cortical neurons [1]", "value": "abolish loss of ΔΨm loss as well as others hallmarks of apoptosis"}, {"measurement": "survival / protection of SD-neurons against cell death (apoptosis hallmarks overall)", "setting": "primary cortical neurons [1]; listed as VDVAD", "value": "abolishes these hallmarks of apoptosis"}, {"measurement": "concentration required for optimal survival / higher protective effect", "setting": "primary cortical neurons [1]; dose-response, inhibitor added at the initiation of 24 hr-SD", "value": 100, "unit": "µM"}, {"measurement": "cell death induced by VP16 (survival)", "setting": "Jurkat cells [2]; Jurkat cells, VP16 7-8 hrs, inhibitors 25-100 μM pre-treatment, siRNA 24 hrs before", "value": "protective effect; also recorded: prevents cell death"}, {"measurement": "terminal nuclear alterations and PMP in VP16-treated Jurkat cells", "setting": "Jurkat cells [2]", "value": "mostly prevent"}, {"measurement": "ΔΨm loss in VP16-treated Jurkat cells", "setting": "Jurkat cells [2]", "value": "blocked ΔΨm loss"}, {"measurement": "cell death induced by staurosporine or ionomycin", "setting": "primary cortical neurons [8]; cortical neurons", "value": "is not prevented"}, {"measurement": "protection against ionomycin-induced neuronal cell death", "setting": "primary cortical neurons [8]", "value": "provides no protective effect; also recorded: absence of protective effect"}, {"measurement": "protection against ionomycin-induced neuronal cell death", "setting": "primary cortical neurons [8]; listed as VDVAD", "value": "absence of protection"}, {"measurement": "inhibition of VDVAD-AMC cleavage by recombinant caspase-2", "setting": "[4]", "value": "blocked"}, {"measurement": "Bax translocation (relocation) to mitochondria in SD-neurons", "setting": "Bax", "value": "impair Bax translocation to mitochondria; also recorded: impair both Bax translocation and caspase-2 activity"}, {"measurement": "Bax translocation (relocation) to mitochondria in SD-neurons", "setting": "Bax; listed as VDVAD", "value": "prevented; also recorded: blocks; also recorded: prevents integration of p18 Bax into mitochondrial membrane"}, {"measurement": "caspase-9 like activity / activation in SD-neurons", "setting": "caspase-9", "value": "inhibited; also recorded: prevent downstream cytochrome c release-dependent activation"}, {"measurement": "caspase-2 like activity / activation in SD-neurons", "setting": "caspase-2 [9]", "value": "abolished; also recorded: abolish caspase-2 activation; also recorded: impair both Bax translocation and caspase-2 activity; also recorded: blocks"}, {"measurement": "decrease of procaspase-2 protein content (processing into p14 form) in SD-neurons", "setting": "caspase-2 [9]; 24 hr-SD, 100 μM, Western Blotting 11B4", "value": "prevents it"}, {"measurement": "cytochrome c release from mitochondria in SD-neurons", "setting": "cytochrome c", "value": "efficiently blocked"}, {"measurement": "cytochrome c release from mitochondria in SD-neurons", "setting": "cytochrome c; listed as VDVAD", "value": "reduce post-mitochondrial cytochrome c release"}, {"measurement": "Bax cleavage (p18 Bax) in SD-neurons", "setting": "Bax α", "value": "prevent Bax cleavage"}, {"measurement": "caspase-3 like activity / activation in SD-neurons", "setting": "caspase-3 [5]", "value": "inhibited; also recorded: prevent downstream cytochrome c release-dependent activation"}]}
